The target of data set [1] is T1, Aldehyde dehydrogenase, dimeric NADP-preferring (Homo sapiens, UniProt P30838).
T1 sequence (P30838 whole entry): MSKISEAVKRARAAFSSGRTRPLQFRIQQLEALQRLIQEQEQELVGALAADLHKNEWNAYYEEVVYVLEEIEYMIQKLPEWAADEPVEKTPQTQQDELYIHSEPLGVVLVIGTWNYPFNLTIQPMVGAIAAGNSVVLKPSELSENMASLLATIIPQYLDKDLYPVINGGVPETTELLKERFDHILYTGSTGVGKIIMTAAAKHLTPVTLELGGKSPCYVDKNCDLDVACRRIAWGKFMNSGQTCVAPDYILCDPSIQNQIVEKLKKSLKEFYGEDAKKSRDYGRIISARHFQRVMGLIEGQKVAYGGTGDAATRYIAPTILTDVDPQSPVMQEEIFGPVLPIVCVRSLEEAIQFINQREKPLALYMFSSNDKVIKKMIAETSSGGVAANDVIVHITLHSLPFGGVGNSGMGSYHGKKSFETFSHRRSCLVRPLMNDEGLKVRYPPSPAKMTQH
Kind of data set: Inhibition of full length recombinant human ALDH3A1 expressed in Escherichia coli BL21(DE3) assessed as reduction in dehydrogenase activity by measuring NAD(P)H level preincubated for 2 mins followed by addition of benzaldehyde as substrate in presence of NADP+ by spectrophotometric method.

The target of data set [2] is T2, Aldehyde dehydrogenase 1A1 (Homo sapiens) (UniProt P00352).
T2 sequence (whole entry): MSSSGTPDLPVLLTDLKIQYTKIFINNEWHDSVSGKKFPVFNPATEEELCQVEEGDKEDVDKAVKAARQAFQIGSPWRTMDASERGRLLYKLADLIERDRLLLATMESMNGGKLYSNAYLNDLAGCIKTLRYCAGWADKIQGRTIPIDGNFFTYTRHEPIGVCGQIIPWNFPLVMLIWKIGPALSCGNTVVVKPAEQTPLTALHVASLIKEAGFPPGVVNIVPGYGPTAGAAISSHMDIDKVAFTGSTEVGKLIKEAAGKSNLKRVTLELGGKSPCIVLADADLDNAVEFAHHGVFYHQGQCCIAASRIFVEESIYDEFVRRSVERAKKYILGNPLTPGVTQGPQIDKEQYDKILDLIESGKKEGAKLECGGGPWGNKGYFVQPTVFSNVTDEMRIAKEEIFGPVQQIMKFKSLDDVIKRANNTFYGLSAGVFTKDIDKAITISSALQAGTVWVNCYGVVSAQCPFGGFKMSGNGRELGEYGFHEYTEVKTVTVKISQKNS
The data set is described as follows: Inhibition of full length recombinant human ALDH1A1 expressed in Escherichia coli BL21(DE3) assessed as remaining dehydrogenase activity by measuring NAD(P)H level at 10 uM preincubated for 2 mins followed by addition of propionaldehyde as substrate in presence of NAD+ by spectrophotometric method.

Data set [3] in a line: Lipophilicity, log P of the compound. The class given is physicochemical. Conditions: octanol/water; call rule not given here.
Data set [4] deals with T3, Aldehyde dehydrogenase, mitochondrial (Homo sapiens, UniProt P05091).
T3 sequence (P05091 whole entry): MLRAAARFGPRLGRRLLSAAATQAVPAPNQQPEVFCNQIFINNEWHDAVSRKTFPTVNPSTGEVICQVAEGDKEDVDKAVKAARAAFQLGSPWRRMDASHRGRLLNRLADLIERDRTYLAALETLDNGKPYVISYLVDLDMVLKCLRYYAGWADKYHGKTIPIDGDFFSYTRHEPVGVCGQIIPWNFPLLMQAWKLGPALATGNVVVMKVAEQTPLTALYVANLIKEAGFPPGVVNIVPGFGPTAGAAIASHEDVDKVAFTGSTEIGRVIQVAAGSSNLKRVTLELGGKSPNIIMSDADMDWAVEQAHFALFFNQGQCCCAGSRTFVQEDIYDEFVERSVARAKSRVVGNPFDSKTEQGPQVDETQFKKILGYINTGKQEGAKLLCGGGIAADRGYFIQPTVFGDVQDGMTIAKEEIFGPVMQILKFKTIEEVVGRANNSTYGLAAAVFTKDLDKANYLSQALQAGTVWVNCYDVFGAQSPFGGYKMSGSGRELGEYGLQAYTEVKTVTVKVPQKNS
Description: Inhibition of full length recombinant human ALDH2 expressed in Escherichia coli assessed as reduction in dehydrogenase activity by measuring NAD(P)H level preincubated for 2 mins followed by addition of propionaldehyde as substrate in presence of NAD+ by spectrophotometric method

The target in data set [5] is T4, Aldehyde dehydrogenase, dimeric NADP-preferring (Homo sapiens) (UniProt P30838).
T4 sequence (whole entry): T1 sequence (P30838 whole entry)
The data set is described as follows: Inhibition of full length recombinant human ALDH3A1 expressed in Escherichia coli BL21(DE3) assessed as remaining dehydrogenase activity by measuring NAD(P)H level at 10 uM preincubated for 2 mins followed by addition of propionaldehyde as substrate in presence of NAD+ by spectrophotometric method.

Data set [6] deals with T5, Aldehyde dehydrogenase X, mitochondrial (Homo sapiens, UniProt P30837).
T5 sequence (P30837 whole entry): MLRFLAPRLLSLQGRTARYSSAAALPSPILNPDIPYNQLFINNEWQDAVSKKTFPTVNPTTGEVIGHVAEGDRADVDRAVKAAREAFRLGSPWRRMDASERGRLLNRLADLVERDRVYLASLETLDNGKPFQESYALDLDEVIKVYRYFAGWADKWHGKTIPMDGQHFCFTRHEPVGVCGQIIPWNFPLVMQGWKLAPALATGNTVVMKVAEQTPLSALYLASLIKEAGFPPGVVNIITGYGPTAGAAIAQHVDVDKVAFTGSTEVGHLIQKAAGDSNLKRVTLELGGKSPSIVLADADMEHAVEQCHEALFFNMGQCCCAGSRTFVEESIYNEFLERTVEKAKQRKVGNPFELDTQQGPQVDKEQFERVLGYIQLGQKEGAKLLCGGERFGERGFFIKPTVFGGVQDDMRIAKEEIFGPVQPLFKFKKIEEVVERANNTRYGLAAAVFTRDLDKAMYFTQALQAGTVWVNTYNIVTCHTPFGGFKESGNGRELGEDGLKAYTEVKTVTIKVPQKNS
Description: Inhibition of full length recombinant human ALDH1B1 expressed in Escherichia coli TunerDE3 assessed as reduction in dehydrogenase activity by measuring NAD(P)H level preincubated for 2 mins followed by addition of propionaldehyde as substrate in presence of NAD+ by spectrophotometric method

In data set [7] the target is T6, Retinal dehydrogenase 2 (Homo sapiens, UniProt O94788).
T6 sequence (O94788 whole entry): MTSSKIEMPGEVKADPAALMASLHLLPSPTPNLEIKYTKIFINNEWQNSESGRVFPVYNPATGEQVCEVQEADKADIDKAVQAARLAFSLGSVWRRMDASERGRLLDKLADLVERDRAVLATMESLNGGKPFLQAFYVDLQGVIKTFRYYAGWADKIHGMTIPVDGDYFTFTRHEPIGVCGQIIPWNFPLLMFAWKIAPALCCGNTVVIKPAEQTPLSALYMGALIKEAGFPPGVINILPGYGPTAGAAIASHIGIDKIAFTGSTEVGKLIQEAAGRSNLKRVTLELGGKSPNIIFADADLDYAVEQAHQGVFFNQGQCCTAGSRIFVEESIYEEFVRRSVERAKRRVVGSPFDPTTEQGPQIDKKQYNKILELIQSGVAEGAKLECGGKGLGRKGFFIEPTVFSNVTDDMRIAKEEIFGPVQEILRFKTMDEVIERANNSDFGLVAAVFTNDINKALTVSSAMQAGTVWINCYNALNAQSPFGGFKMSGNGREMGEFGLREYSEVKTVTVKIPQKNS
Description: Inhibition of full length recombinant human ALDH1A2 expressed in Escherichia coli BL21(DE3) assessed as reduction in dehydrogenase activity by measuring NAD(P)H level preincubated for 2 mins followed by addition of propionaldehyde as substrate in presence of NAD+ by spectrophotometric method

As to `COC(=O)C(C)Oc1ccc2c(C)cc(=O)oc2c1` (configuration not stated), the half-maximal inhibitory concentration (IC50) entry is “Not Active” in data set [1] and 1500 nM in data set [4]. For the same compound, the Activity in data set [2] was found to be 84.8%. The logP in data set [3] was determined as 1.9.
Regarding `C/C(=N\O)c1cc2cc(Br)ccc2oc1=O`, the values for the IC50 result in data set [1] and in data set [4] were “Not Active” and 4600 nM, respectively. In addition, the results for the Activity in data set [2] and in data set [5] were 96% and 91.7%, respectively. The compound also returned a log partition coefficient (logP) in data set [3] of 2.1.
Take `CCCc1c(C)c2cc3c(C)c(C)oc3cc2oc1=O`: the IC50 entry is “Not Active” in data set [1], 110 nM in data set [4], 360 nM in data set [6] and 300 nM in data set [7]. Besides, the results for the Activity in data set [2] and in data set [5] were 36.3% and 86.3%, respectively. Further, the logP in data set [3] was found to be 4.92.
As for `Cc1oc2cc3oc(=O)c(C)c(C)c3cc2c1C`, the IC50 entry in data set [1] was “Not Active”; in data set [6] it was 310 nM; in data set [7], 330 nM. The Activity stood at 90.5% in data set [2] and 95.3% in data set [5]. The same compound came in with a logP in data set [3] of 4.39.
For `CCCc1c(C)c2cc3c(C)coc3cc2oc1=O`, the IC50 result was “Not Active” in data set [1], 340 nM in data set [4], 880 nM in data set [6] and 760 nM in data set [7]. Also, the Activity in data set [2] was 48.6%; in data set [5], 96.1%. Moreover, the logP in data set [3] came to 4.47.
Turning to `CCCc1cc(=O)oc2cc3oc(C)c(C)c3cc12`, the IC50 entry was “Not Active” in data set [1], 360 nM in data set [4], 86 nM in data set [6] and 69 nM in data set [7]. In addition, the results for the Activity in data set [2] and in data set [5] were 74.1% and 80.4%, respectively. This compound also returned a lipophilicity (logP) in data set [3] of 4.47.
Consider `Cc1oc2cc3oc(=O)c4c(c3cc2c1C)CCC4`, for which the IC50 entry was “Not Active” in data set [1], 67 nM in data set [4], 160 nM in data set [6] and 130 nM in data set [7]. The Activity in data set [2] is 50.8%; in data set [5] it was 87.1%. In addition, the logP in data set [3] was determined as 4.26.
`Cc1oc2cc3oc(=O)c(CCC(=O)N4CCCCC4)c(C)c3cc2c1C`: the IC50 entry in data set [1] was “Not Active”; in data set [4], 2000 nM; in data set [6], 2600 nM; in data set [7], 1600 nM. Also, the results for the Activity in data set [2] and in data set [5] were 8.69% and 105%, respectively. In data set [3], this compound yielded a logP of 4.06.
Take `Cc1oc2cc3oc(=O)c4c(c3cc2c1C)CCCC4`: the IC50 result in data set [1] is “Not Active”; in data set [4], 67 nM; in data set [6], 95 nM; in data set [7], 65 nM. The Activity in data set [2] is 56.3%; in data set [5] it was 94.1%. This compound showed a logP in data set [3] of 4.27.

The values above are taken from ChEMBL document CHEMBL4007427, “Inhibition of the Aldehyde Dehydrogenase 1/2 Family by Psoralen and Coumarin Derivatives” (J Med Chem, 2017).
